Assays:
recombinant human p38α = recombinant human p38α (Homo sapiens, UniProt Q16539); assay: Purified and activated recombinant human p38α HTRF kinase assay; format: biochemical; conditions: 1 nM p38α, 50 μM ATP, GST-ATF2 substrate, read-out: p38a IC50
Description: Purified and Activated Recombinant Human p38α Assay
• Kinase Reaction Buffer: Kinase reaction buffer for p38α HTRF assays consists of 50 mM Tris-pH 7.5, 5 mM MgCl2, 0.1 mg/mL BSA, 100 μM Na3VO4 and 0.5 mM DTT. • HTRF Detection Buffer: HTRF detection buffer contains 100 mM HEPES-pH 7.5, 100 mM NaCl, 0.1% BSA, 0.05% Tween-20, and 10 mM EDTA. • Serial Dilution of Compounds: Compounds were dissolved in 100% DMSO and serially diluted (3 fold, 10 point) in a polypropylene 96-well microtiter plate (drug plate). The final starting concentration of compounds in the p38α enzymatic assays was 1 μM. Columns 6 and 12 (HI controls and LO controls respectively) in the drug plate were reserved as controls and contained only DMSO. • Kinase Reaction The p38α kinase reactions were carried out in a polypropylene 96-well black round bottom assay plate in total volume of 30 μL kinase reaction buffer. Appropriate concentration of purified and activated enzyme (recombinant human) was mixed with indicated concentration of ATP and 100 nM GST-ATF2-Avitag, in the presence or absence (HI control) of Compound. See table below for actual concentrations. In the absence of substrate, the background was measured as LO control. The reaction was allowed to incubate for 1 hour at RT. • Assay Reagent Concentrations: The final reagent concentrations were 1 nM p38α and 50 μM ATP. […] After 60 minutes incubation at room temperature, the assay plate was read in a Discovery Plate Reader. The wells were excited with coherent 320 nm light and the ratio of delayed ([…] post excitation) emissions at […] (native europium fluorescence) and 665 nm (europium fluorescence transferred to allophycocyanin—an index of substrate phosphorylation) was determined (Park et al, 1999). • Data Analysis: The proportion of substrate phosphorylated in the kinase reaction in the presence of compound compared with that phosphorylated in the presence of DMSO vehicle alone (HI control) was calculated using the formula: % control (POC)=(compound−average LO)/(average HI−average LO)*100. Data (consisting of POC and inhibitor concentration in μM) was fitted to a 4-parameter equation (y=A+((B−A)/(1+((x/C)^D))), where A is the minimum y (POC) value, B is the maximum y (POC), C is the x (compound concentration) at the point of inflection and D is the slope factor, using a Levenburg-Marquardt non-linear regression algorithm.
The inhibition constant (Ki) of the inhibitor was estimated from the IC50 (compound concentration at the point of inflection C) using the Cheng-Prussof equation: Ki=IC50/(1+S/Km), where S is the ATP substrate concentration, and Km is the Michaelis constant for ATP as determined experimentally. All results were expressed as the mean±the standard error of the mean. Data acquisition and non-linear regression algorithms were performed using Activity Base v5.2 and XL-fit software v4.1 respectively. All data was archived using Activity Base v5.2 software.

[1] = system: TNF-α secretion by LPS-treated THP1 cells; assay: Lipopolysaccharide-activated THP1 cell TNF production assay; format: cell-based; conditions: Homo sapiens, THP-1; LPS, 3 hours, THP1 cells; read-out: IC50 in the THP-1 cellular TNF production assay
Description: Lipopolysaccharide-Activated THP1 Cell TNF Production Assay
THP1 cells were resuspended in fresh THP1 media (RPMI 1640, 10% heat-inactivated FBS, 1×PGS, 1×NEAA, plus 30 μM βME) at a concentration of 1.5×10^6 cells per mL. One hundred microliters of cells per well were plated in a polystyrene 96-well tissue culture plate. 1.5 micrograms per mL of bacterial LPS was prepared in THP1 media and transferred to the first 11 columns of a 96-well polypropylene plate. Column 12 contained only THP1 media for the LO control. Compounds were dissolved in 100% DMSO and serially diluted 3 fold in a polypropylene 96-well microtiter plate (drug plate). Columns 6 and 12 were reserved as controls (HI controls and LO controls respectively) and contained only DMSO. 10 μL of LPS followed by one microliter of inhibitor compound from the drug plate was transferred to the cell plate. The treated cells were induced to synthesize and secrete TNF-α in a 37° C. humidified incubator with 5% CO2 for 3 hours. Fifty microliters of conditioned media was transferred to a 96-well MULTI-ARRAY™ 96-well small spot plate—custom coated with MAB610 containing 100 μL of 2× Read Buffer P supplemented with 0.34 nM AF210NA polyclonal Ab labeled with ruthenium (MSD-Sulfo-TAG™-NHS ester). After an overnight incubation at room temperature with shaking, the reaction was read on the Sector Imager™ 6000. […] The amount of secreted TNF-α in the presence of AMG compounds compared with that in the presence of DMSO vehicle alone (HI control) was calculated using the formula: % control (POC)=(cpd−average LO)/(average HI−averageLO)*100. Data (consisting of POC and inhibitor concentration in μM) was fitted to a 4-parameter equation (y=A+((B−A)/(1+((x/C)^D))), where A is the minimum y (POC) value, B is the maximum y (POC), C is the x (cpd concentration) at the point of inflection and D is the slope factor) using a Levenburg-Marquardt non-linear regression algorithm.

Chain of recombinant human p38α (Q16539 whole entry): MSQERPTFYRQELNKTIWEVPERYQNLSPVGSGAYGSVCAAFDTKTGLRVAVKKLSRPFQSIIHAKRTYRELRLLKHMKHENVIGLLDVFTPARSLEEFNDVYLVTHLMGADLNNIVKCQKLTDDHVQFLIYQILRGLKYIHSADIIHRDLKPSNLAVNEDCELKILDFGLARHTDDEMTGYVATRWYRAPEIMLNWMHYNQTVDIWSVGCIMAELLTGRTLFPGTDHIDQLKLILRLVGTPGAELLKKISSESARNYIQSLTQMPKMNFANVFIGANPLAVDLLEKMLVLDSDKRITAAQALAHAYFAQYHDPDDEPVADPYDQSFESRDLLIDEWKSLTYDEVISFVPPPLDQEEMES

| IC50 (recombinant human p38α) [nM] | IC50 [1] [nM] | Structure (SMILES) |
| --- | --- | --- |
| 2.3 | ≤ 175 | Cc1c(F)cc(C(N)=O)cc1-c1cc2cnn(-c3ccccc3Cl)c2n(C)c1=O [Example 1, 3-(1-(2-chlorophenyl)-7-methyl-6-oxo-6,7-dihydro-1H-pyrazolo[3,4-b]pyridin-5-yl)-5-fluoro-4-methylbenzamide] |
| 2.5 | ≤ 175 | CCn1c(=O)c(-c2cc(C(=O)NC3CC3)cc(F)c2C)cc2cnn(-c3ccccc3F)c21 [Example 6, N-cyclopropyl-3-(7-ethyl-1-(2-fluorophenyl)-6-oxo-6,7-dihydro-1H-pyrazolo[3,4-b]pyridin-5-yl)-5-fluoro-4-methylbenzamide] |
| 2.2 | ≤ 175 | Cc1c(F)cc(C(=O)NC2CC2)cc1-c1cc2cnn(-c3ccccc3F)c2n(C)c1=O [Example 9, N-cyclopropyl-3-fluoro-5-(1-(2-fluorophenyl)-7-methyl-6-oxo-6,7-dihydro-1H-pyrazolo[3,4-b]pyridin-5-yl)-4-methylbenzamide] |
| 2.9 | ≤ 175 | Cc1ccc(C(=O)Nc2ccnn2C)cc1-c1cc2cnn(-c3c(F)cccc3F)c2n(C)c1=O [Example 10, 3-(1-(2,6-difluorophenyl)-7-methyl-6-oxo-6,7-dihydro-1H-pyrazolo[3,4-b]pyridin-5-yl)-4-methyl-N-(1-methyl-1H-pyrazol-5-yl)benzamide] |
| 2.6 | ≤ 175 | Cc1c(F)cc(C(=O)NC2CC2)cc1-c1cc2cnn(-c3ccc(F)cc3F)c2n(C)c1=O [Example 11, N-cyclopropyl-3-(1-(2,4-difluorophenyl)-7-methyl-6-oxo-6,7-dihydro-1H-pyrazolo[3,4-b]pyridin-5-yl)-5-fluoro-4-methylbenzamide] |
| 4.2 | ≤ 175 | Cc1ccc(C(=O)NC2CC2)cc1-c1cc2cnn(-c3ccccc3C)c2n(C)c1=O [Example 14, N-cyclopropyl-4-methyl-3-(7-methyl-1-(2-methylphenyl)-6-oxo-6,7-dihydro-1H-pyrazolo[3,4-b]pyridin-5-yl)benzamide] |
| 5.2 | ≤ 175 | Cc1ccccc1-n1ncc2cc(-c3cc(C(=O)NC4CC4)cc(F)c3C)c(=O)n(C)c21 [Example 15, N-cyclopropyl-3-fluoro-4-methyl-5-(7-methyl-1-(2-methylphenyl)-6-oxo-6,7-dihydro-1H-pyrazolo[3,4-b]pyridin-5-yl)benzamide] |
|  | ≤ 175 | Cc1c(F)cc(C(=O)NC2CC2)cc1-c1cc2cnn(C(C)C)c2n(C)c1=O [Example 17, N-cyclopropyl-3-fluoro-4-methyl-5-(7-methyl-1-(1-methylethyl)-6-oxo-6,7-dihydro-1H-pyrazolo[3,4-b]pyridin-5-yl)benzamide] |
| 3 | ≤ 175 | Cc1ccc(C(=O)Nc2ccon2)cc1-c1cc2cnn(-c3c(F)cccc3F)c2n(C)c1=O [Example 18, 3-(1-(2,6-difluorophenyl)-7-methyl-6-oxo-6,7-dihydro-1H-pyrazolo[3,4-b]pyridin-5-yl)-N-3-isoxazolyl-4-methylbenzamide] |
| 18 | ≤ 175 | Cc1cnc(C(=O)NC2CC2)cc1-c1cc2cnn(-c3c(F)cccc3F)c2n(C)c1=O [Example 19, N-cyclopropyl-4-(1-(2,6-difluorophenyl)-7-methyl-6-oxo-6,7-dihydro-1H-pyrazolo[3,4-b]pyridin-5-yl)-5-methyl-2-pyridinecarboxamide] |
| 7 | ≤ 175 | Cc1c(F)cc(C(=O)NC(C)C)cc1-c1cc2cnn(-c3c(F)cccc3F)c2n(C)c1=O [Example 21, 3-(1-(2,6-difluorophenyl)-7-methyl-6-oxo-6,7-dihydro-1H-pyrazolo[3,4-b]pyridin-5-yl)-5-fluoro-4-methyl-N-(1-methylethyl)benzamide] |
| 6.2 | ≤ 175 | CNC(=O)c1cc(F)c(C)c(-c2cc3cnn(-c4c(F)cccc4F)c3n(C)c2=O)c1 [Example 22, 3-(1-(2,6-difluorophenyl)-7-methyl-6-oxo-6,7-dihydro-1H-pyrazolo[3,4-b]pyridin-5-yl)-5-fluoro-N,4-dimethylbenzamide] |
| 3.9 | ≤ 175 | Cc1c(F)cc(C(=O)NC2CC2)cc1-c1cc2cnn(-c3cc(F)ccc3F)c2n(C)c1=O [Example 23, N-cyclopropyl-3-(1-(2,5-difluorophenyl)-7-methyl-6-oxo-6,7-dihydro-1H-pyrazolo[3,4-b]pyridin-5-yl)-5-fluoro-4-methylbenzamide] |
| 6.2 | ≤ 175 | Cc1ccc(C(=O)NC2CC2)cc1-c1cc2cnn(-c3cc(F)ccc3F)c2n(C)c1=O [Example 24, N-cyclopropyl-3-(1-(2,5-difluorophenyl)-7-methyl-6-oxo-6,7-dihydro-1H-pyrazolo[3,4-b]pyridin-5-yl)-4-methylbenzamide] |
| 1.1 | ≤ 175 | Cc1ccc(C(=O)NC2(C)CC2)cc1-c1cc2cnn(-c3cc(F)ccc3F)c2n(C)c1=O [Example 25, 3-(1-(2,5-difluorophenyl)-7-methyl-6-oxo-6,7-dihydro-1H-pyrazolo[3,4-b]pyridin-5-yl)-4-methyl-N-(1-methylcyclopropyl)benzamide] |
| 2.3 | ≤ 175 | Cc1ccc(C(=O)Nc2ccon2)cc1-c1cc2cnn(-c3cc(F)ccc3F)c2n(C)c1=O [Example 26, 3-(1-(2,5-difluorophenyl)-7-methyl-6-oxo-6,7-dihydro-1H-pyrazolo[3,4-b]pyridin-5-yl)-N-3-isoxazolyl-4-methylbenzamide] |
| 1.1 | ≤ 175 | Cc1ccc(C(=O)Nc2nccs2)cc1-c1cc2cnn(-c3c(F)cccc3F)c2n(C)c1=O [Example 28, 3-(1-(2,6-difluorophenyl)-7-methyl-6-oxo-6,7-dihydro-1H-pyrazolo[3,4-b]pyridin-5-yl)-4-methyl-N-1,3-thiazol-2-ylbenzamide] |
|  | ≤ 175 | Cn1c(=O)c(-c2cc(C(=O)NC3CC3)ccc2Cl)cc2cnn(-c3cc(F)ccc3F)c21 [Example 29, 4-chloro-N-cyclopropyl-3-(1-(2,5-difluorophenyl)-7-methyl-6-oxo-6,7-dihydro-1H-pyrazolo[3,4-b]pyridin-5-yl)benzamide] |
|  | ≤ 175 | Cc1ccc(C(=O)NC2(C)CC2)cc1-c1cc2cnn(-c3c(F)cccc3F)c2n(C)c1=O [Example 30, 3-(1-(2,6-difluorophenyl)-7-methyl-6-oxo-6,7-dihydro-1H-pyrazolo[3,4-b]pyridin-5-yl)-4-methyl-N-(1-methylcyclopropyl)benzamide] |

Source: patent US7846944B2, “Pyrazolo-pyridinone compounds and methods of use thereof” (Amgen Inc., priority 2007, dated 2010)
